Measurements taken from PMC12207366, “Protonated Glutamate and Aspartate Side Chains Can Recognize Phosphodiester Groups via Strong and Short Hydrogen Bonds in Biomacromolecular Complexes” (Angewandte Chemie (International Ed. in English), 2025).

How the values were obtained:
PilF159-302 Q190E = biological target: T1, PilF159-302 Q190E (Thermus thermophilus, UniProt Q72H73, Q190E); test: ITC c-di-GMP binding to Q190E mutant, pH series; details: 20 °C
T1 sequence (Q72H73 159-302 Q190E): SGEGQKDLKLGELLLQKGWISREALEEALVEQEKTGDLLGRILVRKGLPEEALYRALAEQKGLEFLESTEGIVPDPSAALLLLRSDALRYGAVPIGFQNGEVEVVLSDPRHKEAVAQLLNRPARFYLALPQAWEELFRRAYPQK
Source text: To characterize c-di-GMP binding by PilF159-302, the Q190E and Q218E constructs via isothermal titration calorimetry (ITC) and X-ray crystallography unlabeled c-di-GMP was synthesized using a constitutively active mutant of a diguanylate cyclase from the thermophilic bacterium Thermogata maritima ^[4^4,4^5]. For NMR experiments ^13C,^15N labelled c-di-GMP was synthesized identically using ^13C,^15N labelled GTP as a substrate.
c-di-GMP binding capabilities of PilF159-302, its mutant constructs PilF159-302 Q190E and PilF159-302 Q218E at varying pH-values were investigated by isothermal titration calorimetry (ITC) experiments in triplicate. All measurements were conducted at 20 °C using a MicroCal ITC200 (Malvern Panalytical, UK). For PilF159-302 Q190E and PilF159-302 Q218E ITC-measurements were conducted in a pH range from pH 8.5 – 4.0 with the buffering agent adjusted to the respective pH-range. For the pH-range 8.5 – 7.5 a sample buffer of 50 mM Tris, 200 mM NaCl and 1 mM β-Me was used. For pH values 7.0 – 6.0 a sample buffer of 50 mM BisTris, 200 mM NaCl, 1 mM β-Me and for pH 5.5 – 4.0 a sample buffer of 50 mM NaAc, 200 mM NaCl, 1 mM β-Me was used. For reference PilF159-302 was titrated with c-di-GMP at pH 8.5 in 50 mM Tris pH 8.5, 200 mM NaCl, 1 mM β-Me and at pH 4.0 in 50 mM NaAc pH 4.0, 200 mM NaCl, 1 mM β-Me. In order to test whether the buffer reagents have an influence on the measured thermodynamic parameters, cross measurements were performed in the region of the pH transitions. To this end, additional measurements with BisTris at pH 7.5 and 5.5, with Tris at pH 7.0 and with NaAc at pH 6.0 were carried out as singlets. The buffer agents had no influence on measured KD-values and resulted only in small changes of the ΔH values. All protein samples were dialyzed two times against 500 ml of the respective sample buffer (1 L in total) at 4 °C for at least 16 hours per step using a dialysis chamber with a nominal 3.5 kDa molecular weight cutoff (ZelluTrans, ROTH). To prepare the ITC-measurements protein and c-di-GMP sample were adjusted to the respective concentration using the dialysis buffer. Protein and c-di-GMP concentration ranged from 20 to 50 µM (protein) and 200 to 500 µM (c-di-GMP) depending on the c-di-GMP binding capabilities at the different pH-values to optimize precision of the measurements. For pH 8.5 – 7.0 a protein concentration of 50 µM with 500 µM c-di-GMP was used. For pH 6.5 – 5.0 a protein concentration of 30 µM with 300 µM c-di-GMP and for pH 4.5 – 4.0 a protein concentration of 20 µM with 200 µM c-di-GMP was used. The following protocol was utilized for each measurement. To 270 µl protein a total of 40 µl c-di-GMP was titrated in 21 injections with a duration of 4 s in intervals of 180 s with a stirring speed of 750 rpm. The first injection of 0.2 µl c-di-GMP with a duration of 0.4 s was carried out after an initial delay of 120 s, which was followed by 20 injections of 2 µl each with a duration of 4 s. During the measurement, the feedback mode was set to high and the reference power to 11 µcal s^-1. All thermograms were processed using Origin 7.0 (OriginLab) using the one-site binding model.

[1] = system: GSPII-B domain Q190E Q218E double mutant; design: method as in PMID 39615687; details: in vitro, pH 7.5; cited from earlier work
PilF159-302 WT = biological target: T2, PilF159-302 WT (Thermus thermophilus, UniProt Q72H73); design: method as in PMID 39615687; details: GSPII-B (PilF159-302) four-helix bundle; cited from earlier work
T2 sequence (Q72H73 159-302): T1 sequence (Q72H73 159-302 Q190E)

PilF159-221 = system: PilF159-221; design: method as in PMID 39615687; details: cited from earlier work
[2] = Bis-Tris, pH 7.5, buffer cross measurement, singlet
[3] = Na-Acetate, pH 6.0, buffer cross measurement, singlet
[4] = Tris, pH 7.0, buffer cross measurement, singlet

For `Nc1nc2c(ncn2C2OC3COP(=O)(O)OC4C(COP(=O)(O)OC3C2O)OC(n2cnc3c(=O)[nH]c(N)nc32)C4O)c(=O)[nH]1` (stereo not shown) [c-di-GMP], which Kd (PilF159-302 Q190E; Bis-Tris, pH 6.0) is on record?
Its Kd is 67 ± 3 nM.

And the N (PilF159-302 Q190E; Bis-Tris, pH 6.0)?
The N was 0.96 ± 0.01.

And the ΔG (PilF159-302 Q190E; Bis-Tris, pH 6.0)?
Its ΔG is -9.40 ± 0.02 kcal/mol.

And the ΔH (PilF159-302 Q190E; Bis-Tris, pH 6.0)?
The ΔH was -5.97 ± 0.05 kcal/mol.

And the “-TΔS” value (PilF159-302 Q190E; Bis-Tris, pH 6.5)?
The value was -3.55 ± 0.20 kcal/mol.

And the Kd (PilF159-302 Q190E; Bis-Tris, pH 6.5)?
The Kd was 160 ± 34 nM.

And the N (PilF159-302 Q190E; Bis-Tris, pH 6.5)?
The N was 0.72 ± 0.12.

What about the ΔG (PilF159-302 Q190E; Bis-Tris, pH 6.5) of the same compound?
Its ΔG is -9.12 ± 0.13 kcal/mol.

What about the ΔH (PilF159-302 Q190E; Bis-Tris, pH 6.5) of the same compound?
The ΔH was -5.58 ± 0.09 kcal/mol.

What about the “-TΔS” value (PilF159-302 Q190E; Bis-Tris, pH 7.0) of the same compound?
Its value is -4.14 ± 0.23 kcal/mol.

What about the Kd (PilF159-302 Q190E; Bis-Tris, pH 7.0) of the same compound?
The Kd was 236 ± 8 nM.

And the N (PilF159-302 Q190E; Bis-Tris, pH 7.0)?
The N was 0.98 ± 0.01.

What about the ΔG (PilF159-302 Q190E; Bis-Tris, pH 7.0) of the same compound?
The ΔG was -8.88 ± 0.02 kcal/mol.

And the ΔH (PilF159-302 Q190E; Bis-Tris, pH 7.0)?
The ΔH was -4.76 ± 0.21 kcal/mol.

What about the “-TΔS” value (PilF159-302 Q190E; [2]) of the same compound?
Its value is -2.51 kcal/mol.

And the Kd (PilF159-302 Q190E; [2])?
Its Kd is 505 nM.

And the ΔG (PilF159-302 Q190E; [2])?
Its ΔG is -8.44 kcal/mol.

What about the ΔH (PilF159-302 Q190E; [2]) of the same compound?
The ΔH was -5.93 kcal/mol.

And the “-TΔS” value (PilF159-302 Q190E; Na-Acetate, pH 4.0)?
The value was -2.59 ± 0.37 kcal/mol.

And the Kd (PilF159-302 Q190E; Na-Acetate, pH 4.0)?
Its Kd is 40 ± 13 nM.

And the N (PilF159-302 Q190E; Na-Acetate, pH 4.0)?
The N was 0.98 ± 0.01.

And the ΔG (PilF159-302 Q190E; Na-Acetate, pH 4.0)?
The ΔG was -9.96 ± 0.22 kcal/mol.

And the ΔH (PilF159-302 Q190E; Na-Acetate, pH 4.0)?
Its ΔH is -7.37 ± 0.17 kcal/mol.

And the “-TΔS” value (PilF159-302 Q190E; Na-Acetate, pH 4.5)?
Its value is -2.27 ± 0.87 kcal/mol.

What about the Kd (PilF159-302 Q190E; Na-Acetate, pH 4.5) of the same compound?
Its Kd is 42 ± 13 nM.

And the N (PilF159-302 Q190E; Na-Acetate, pH 4.5)?
The N was 0.95 ± 0.13.

What about the ΔG (PilF159-302 Q190E; Na-Acetate, pH 4.5) of the same compound?
Its ΔG is -9.92 ± 0.18 kcal/mol.

What about the ΔH (PilF159-302 Q190E; Na-Acetate, pH 4.5) of the same compound?
The ΔH was -7.65 ± 0.98 kcal/mol.

And the “-TΔS” value (PilF159-302 Q190E; Na-Acetate, pH 5.0)?
Its value is -0.27 ± 0.51 kcal/mol.

And the Kd (PilF159-302 Q190E; Na-Acetate, pH 5.0)?
The Kd was 78 ± 11 nM.

What about the N (PilF159-302 Q190E; Na-Acetate, pH 5.0) of the same compound?
The N was 0.91 ± 0.04.

What about the ΔG (PilF159-302 Q190E; Na-Acetate, pH 5.0) of the same compound?
Its ΔG is -9.54 ± 0.09 kcal/mol.

And the ΔH (PilF159-302 Q190E; Na-Acetate, pH 5.0)?
The ΔH was -9.28 ± 0.43 kcal/mol.

What about the “-TΔS” value (PilF159-302 Q190E; Na-Acetate, pH 5.5) of the same compound?
The value was -1.11 ± 0.16 kcal/mol.

What about the Kd (PilF159-302 Q190E; Na-Acetate, pH 5.5) of the same compound?
Its Kd is 74 ± 8 nM.

What about the N (PilF159-302 Q190E; Na-Acetate, pH 5.5) of the same compound?
The N was 1.02 ± 0.02.

What about the ΔG (PilF159-302 Q190E; Na-Acetate, pH 5.5) of the same compound?
The ΔG was -9.56 ± 0.07 kcal/mol.

And the ΔH (PilF159-302 Q190E; Na-Acetate, pH 5.5)?
Its ΔH is -8.54 ± 0.04 kcal/mol.

And the “-TΔS” value (PilF159-302 Q190E; [3])?
The value was -0.49 kcal/mol.

What about the Kd (PilF159-302 Q190E; [3]) of the same compound?
The Kd was 96 nM.

What about the ΔG (PilF159-302 Q190E; [3]) of the same compound?
Its ΔG is -9.41 kcal/mol.

And the ΔH (PilF159-302 Q190E; [3])?
Its ΔH is -8.93 kcal/mol.

What about the “-TΔS” value (PilF159-302 Q190E; [4]) of the same compound?
The value was -6.09 kcal/mol.

What about the Kd (PilF159-302 Q190E; [4]) of the same compound?
The Kd was 223 nM.

And the ΔG (PilF159-302 Q190E; [4])?
The ΔG was -8.92 kcal/mol.

What about the ΔH (PilF159-302 Q190E; [4]) of the same compound?
Its ΔH is -2.81 kcal/mol.

What about the “-TΔS” value (PilF159-302 Q190E; Tris, pH 7.5) of the same compound?
The value was -4.63 ± 0.19 kcal/mol.

What about the Kd (PilF159-302 Q190E; Tris, pH 7.5) of the same compound?
The Kd was 511 ± 13 nM.

And the N (PilF159-302 Q190E; Tris, pH 7.5)?
The N was 0.95 ± 0.09.

What about the ΔG (PilF159-302 Q190E; Tris, pH 7.5) of the same compound?
The ΔG was -8.44 ± 0.02 kcal/mol.

What about the ΔH (PilF159-302 Q190E; Tris, pH 7.5) of the same compound?
The ΔH was -3.81 ± 0.20 kcal/mol.

What about the “-TΔS” value (PilF159-302 Q190E; Tris, pH 8.0) of the same compound?
Its value is -3.37 ± 0.65 kcal/mol.

And the Kd (PilF159-302 Q190E; Tris, pH 8.0)?
Its Kd is 729 ± 44 nM.

And the N (PilF159-302 Q190E; Tris, pH 8.0)?
Its N is 0.84 ± 0.17.

And the ΔG (PilF159-302 Q190E; Tris, pH 8.0)?
The ΔG was -8.23 ± 0.04 kcal/mol.

What about the ΔH (PilF159-302 Q190E; Tris, pH 8.0) of the same compound?
The ΔH was -4.87 ± 0.68 kcal/mol.

What about the “-TΔS” value (PilF159-302 Q190E; Tris, pH 8.5) of the same compound?
Its value is -2.52 ± 0.20 kcal/mol.

What about the Kd (PilF159-302 Q190E; Tris, pH 8.5) of the same compound?
The Kd was 798 ± 39 nM.

What about the N (PilF159-302 Q190E; Tris, pH 8.5) of the same compound?
The N was 0.86 ± 0.09.

And the ΔG (PilF159-302 Q190E; Tris, pH 8.5)?
The ΔG was -8.18 ± 0.03 kcal/mol.

What about the ΔH (PilF159-302 Q190E; Tris, pH 8.5) of the same compound?
The ΔH was -5.66 ± 0.17 kcal/mol.

What about the c-di-GMP binding [1] of the same compound?
The c-di-GMP binding was “did not bind”.

And the Kd (PilF159-302 WT)?
Its Kd is roughly 6 nM.

And the “c-di-GMP binding affinity of subdomain relative to full-length domain” value (PilF159-221)?
The value was “comparable”.
